Assay results taken from patent US8415272B2, “Quinoline derivatives and their use as fungicides” (Syngenta Crop Protection LLC, priority 2008, dated 2013).

Assays:
[1] = tested on: Phytophthora infestans; assay: whole plant or invertebrate; type: in vivo; conditions: in Solanum lycopersicum, foliar, 96 h, read-out: control of fungal infection, Phytophthora infestans
[2] = tested on: Plasmopara viticola; assay: Leaf disk assay, Plasmopara viticola (downy mildew of grapevine), preventive; type: in vivo; conditions: foliar, 168 h, grapevine leaf disks, assessed seven days after inoculation, read-out: control of fungal infection, Plasmopara viticola
[3] = tested on: Erysiphe graminis f.sp. tritici; assay: Leaf disk assay, Erysiphe graminis f.sp. tritici (wheat powdery mildew), preventive; type: in vivo; conditions: Blumeria graminis, foliar, 96 h, wheat leaf segments, assessed four days after inoculation, read-out: control of fungal infection, Erysiphe graminis f.sp. tritici
Protocol: The compounds were tested in a leaf disk assay, with methods described below. The test compounds were dissolved in DMSO and diluted into water to 200 ppm. In the case of the test on Pythium ultimum, they were dissolved in DMSO and diluted into water to 20 […] graminis f.sp. tritici (wheat powdery mildew): Wheat leaf segments were placed on agar in a 24-well plate and sprayed with a solution of the test compound. After allowing to dry completely, for between 12 and 24 hours, the leaf disks were inoculated with a spore suspension of the fungus. After appropriate incubation the activity of a compound was assessed four days after inoculation as preventive fungicidal activity.

[4] = tested on: Puccinia recondita f.sp. tritici; assay: Leaf disk assay, Puccinia recondita f.sp. tritici (wheat brown rust), preventive; type: in vivo; conditions: foliar, 216 h, wheat leaf segments, assessed nine days after inoculation, read-out: control of fungal infection, Puccinia recondita f.sp. tritici
[5] = tested on: Septoria nodorum; assay: Leaf disk assay, Septoria nodorum (wheat glume blotch), preventive; type: in vivo; conditions: Parastagonospora nodorum, foliar, 96 h, wheat leaf segments, assessed four days after inoculation, read-out: control of fungal infection, Septoria nodorum
[6] = tested on: Septoria tritici; assay: Growth inhibition in nutrient broth, Septoria tritici (leaf blotch), photometric; type: cell-based; conditions: Zymoseptoria tritici, PDB broth, 24 C, 72 hrs, read-out: control of fungal infection, Septoria tritici
[7] = tested on: Pythium ultimum; assay: Growth inhibition in potato dextrose broth, Pythium ultimum (damping off), photometric; type: cell-based; conditions: Globisporangium ultimum, 24° C., 48 hours, read-out: control of fungal infection, Pythium ultimum
Protocol: The compounds were tested in a leaf disk assay, with methods described below. The test compounds were dissolved in DMSO and diluted into water to 200 ppm. In the case of the test on Pythium ultimum, they were dissolved in DMSO and diluted into water to 20 ppm. Pythium ultimum (Damping off): Mycelial fragments of the fungus, prepared from a fresh liquid culture, were mixed into potato dextrose broth. A solution of the test compound in dimethyl sulphoxide was diluted with water to 20 ppm then placed into a 96-well microtiter plate and the nutrient broth containing the fungal spores was added. The test plate was incubated at 24° C. and the inhibition of growth was determined photometrically after 48 hours.

[8] = tested on: Fusarium culmorum; assay: Growth inhibition in nutrient broth, Fusarium culmorum (root rot), photometric; type: cell-based; conditions: 48 h, read-out: control of fungal infection, Fusarium culmorum
Protocol: The compounds were tested in a leaf disk assay, with methods described below. The test compounds were dissolved in DMSO and diluted into water to 200 ppm. In the case of the test on Pythium ultimum, they were dissolved in DMSO and diluted into water to 20 ppm.
Fusarium culmorum (root rot): Conidia of the fungus from cryogenic storage were directly mixed into nutrient broth (PDB potato dextrose broth). After placing a (DMSO) solution of the test compounds into a microtiter plate (96-well format) the nutrient broth containing the fungal spores was added. The test plates were incubated at 24 C and the inhibition of growth was determined photometrically after 48 hrs.

C#Cc1cnc2ccc(OC(SC)C(=O)NC(C)(C#N)COC)cc2c1 (stereo not shown) [Example 25]
≥ 60%: pest or weed control at 200 ppm [1] | pest or weed control at 200 ppm [2] | pest or weed control at 200 ppm [3] | pest or weed control at 200 ppm [4] | pest or weed control at 200 ppm [5] | inhibition of growth at 60 ppm [6] | inhibition of growth at 20 ppm [7]

COCC#CC(C)(C)NC(=O)C(Oc1ccc2ncc(C#CCO)cc2c1)SC (stereo not shown) [Example 49]
≥ 60%: pest or weed control at 200 ppm [1] | pest or weed control at 200 ppm [2] | pest or weed control at 200 ppm [4] | inhibition of growth at 20 ppm [7]

CC#Cc1cnc2ccc(OC(SC)C(=O)NC(C)(C#N)COC)cc2c1 (stereo not shown) [Example 53]
≥ 60%: pest or weed control at 200 ppm [1] | pest or weed control at 200 ppm [5] | inhibition of growth at 60 ppm [6] | inhibition of growth at 20 ppm [7]

CC#Cc1cnc2ccc(OC(SC)C(=O)NC(C)(C)C#CCOC)cc2c1 (stereo not shown) [Example 55]
≥ 60%: pest or weed control at 200 ppm [1] | pest or weed control at 200 ppm [2] | pest or weed control at 200 ppm [3] | pest or weed control at 200 ppm [4] | pest or weed control at 200 ppm [5] | inhibition of growth at 60 ppm [6] | inhibition of growth at 20 ppm [7]

C#Cc1cnc2c(Cl)cc(OC(SC)C(=O)NC(C)(C#N)COC)cc2c1 (stereo not shown) [Example 64]
≥ 60%: pest or weed control at 200 ppm [1] | pest or weed control at 200 ppm [2] | pest or weed control at 200 ppm [3] | pest or weed control at 200 ppm [4] | pest or weed control at 200 ppm [5] | inhibition of growth at 60 ppm [6] | inhibition of growth at 20 ppm [7]

C#Cc1cnc2ccc(OC(SC)C(=O)NC(C)(C#N)CSC)cc2c1 (stereo not shown) [Example 67]
≥ 60%: pest or weed control at 200 ppm [1] | pest or weed control at 200 ppm [2] | pest or weed control at 200 ppm [3] | pest or weed control at 200 ppm [4] | inhibition of growth at 60 ppm [6] | inhibition of growth at 20 ppm [7]

C#Cc1cnc2ccc(OC(SC)C(=O)NC3(C#N)CCC3)cc2c1 (stereo not shown) [Example 83]
≥ 60%: pest or weed control at 200 ppm [1] | pest or weed control at 200 ppm [2] | pest or weed control at 200 ppm [3] | pest or weed control at 200 ppm [4] | pest or weed control at 200 ppm [5] | inhibition of growth at 60 ppm [6]

C#Cc1cnc2ccc(OC(SC)C(=O)NC(C)(C)CCOC)cc2c1 (stereo not shown) [Example 85]
≥ 60%: pest or weed control at 200 ppm [1] | pest or weed control at 200 ppm [2] | pest or weed control at 200 ppm [3] | pest or weed control at 200 ppm [4] | pest or weed control at 200 ppm [5] | inhibition of growth at 60 ppm [6] | inhibition of growth at 20 ppm [7]

C#Cc1cnc2ccc(OC(OC)C(=O)NC(C)(C)C#CC)cc2c1 (stereo not shown) [Example 86]
≥ 60%: pest or weed control at 200 ppm [1] | pest or weed control at 200 ppm [2] | pest or weed control at 200 ppm [3] | pest or weed control at 200 ppm [4] | pest or weed control at 200 ppm [5] | inhibition of growth at 60 ppm [6]

C#Cc1cnc2ccc(OC(SC)C(=O)NC(C)(COC)COC)cc2c1 (stereo not shown) [Example 88]
≥ 60%: pest or weed control at 200 ppm [1] | pest or weed control at 200 ppm [2] | pest or weed control at 200 ppm [3] | pest or weed control at 200 ppm [4] | pest or weed control at 200 ppm [5] | inhibition of growth at 60 ppm [6] | inhibition of growth at 20 ppm [7]

C#Cc1cnc2ccc(OC(SC)C(=O)NC)cc2c1 (stereo not shown) [Example 96]
≥ 60%: pest or weed control at 200 ppm [1] | pest or weed control at 200 ppm [2] | pest or weed control at 200 ppm [3] | pest or weed control at 200 ppm [5] | inhibition of growth at 60 ppm [6] | inhibition of growth at 20 ppm [7]

C#Cc1cnc2ccc(OC(SC)C(=O)NC(C)(C)C#CCCOC)cc2c1 (stereo not shown) [Example 103]
≥ 60%: pest or weed control at 200 ppm [1] | pest or weed control at 200 ppm [2] | pest or weed control at 200 ppm [3] | pest or weed control at 200 ppm [4] | pest or weed control at 200 ppm [5]

C#Cc1cnc2cc(F)c(OC(SC)C(=O)NC(C)(C)C(=O)OC)cc2c1 (stereo not shown) [Example 105]
≥ 60%: pest or weed control at 200 ppm [1] | pest or weed control at 200 ppm [2] | pest or weed control at 200 ppm [3] | pest or weed control at 200 ppm [4] | pest or weed control at 200 ppm [5] | inhibition of growth at 60 ppm [6]

C#Cc1cnc2c(C)cc(OC(CC)C(=O)NC(C)(C)C#CCOC)cc2c1 (stereo not shown) [Example 112]
≥ 60%: pest or weed control at 200 ppm [1] | pest or weed control at 200 ppm [2] | pest or weed control at 200 ppm [3] | pest or weed control at 200 ppm [4] | pest or weed control at 200 ppm [5] | inhibition of growth at 60 ppm [6]

C#Cc1cnc2c(Cl)cc(OC(SC)C(=O)NC(C)(C#CC)CC)cc2c1 (stereo not shown) [Example 121]
≥ 60%: pest or weed control at 200 ppm [1] | pest or weed control at 200 ppm [2] | pest or weed control at 200 ppm [3] | pest or weed control at 200 ppm [5] | inhibition of growth at 60 ppm [6] | inhibition of growth at 20 ppm [7]

C#Cc1cnc2c(Cl)cc(OC(SC)C(=O)NC(C)(C)C#CCCCCl)cc2c1 (stereo not shown) [Example 123]
≥ 60%: pest or weed control at 200 ppm [1] | pest or weed control at 200 ppm [2] | pest or weed control at 200 ppm [3] | pest or weed control at 200 ppm [4] | pest or weed control at 200 ppm [5] | inhibition of growth at 60 ppm [6]

C#Cc1cnc2ccc(OC(OC)C(=O)NC(C)(C#N)COC)cc2c1 (stereo not shown) [Example 128]
≥ 60%: pest or weed control at 200 ppm [1] | pest or weed control at 200 ppm [2] | pest or weed control at 200 ppm [3] | pest or weed control at 200 ppm [5] | inhibition of growth at 60 ppm [6] | inhibition of growth at 20 ppm [7]

C#Cc1cnc2c(C)cc(OC(SC)C(=O)NC(C)(C=O)COC)cc2c1 (stereo not shown) [Example 134]
≥ 60%: pest or weed control at 200 ppm [1] | pest or weed control at 200 ppm [2] | pest or weed control at 200 ppm [3] | pest or weed control at 200 ppm [4] | pest or weed control at 200 ppm [5] | inhibition of growth at 60 ppm [6]

C#Cc1cnc2ccc(OC(SC)C(=O)NC3(CO)CCC3)cc2c1 (stereo not shown) [Example 148]
≥ 60%: pest or weed control at 200 ppm [1] | pest or weed control at 200 ppm [2] | pest or weed control at 200 ppm [3] | pest or weed control at 200 ppm [4] | inhibition of growth at 60 ppm [6]

C#CCOCC1(NC(=O)C(Oc2ccc3ncc(C#C)cc3c2)SC)CCC1 (stereo not shown) [Example 152]
≥ 60%: pest or weed control at 200 ppm [1] | pest or weed control at 200 ppm [2] | pest or weed control at 200 ppm [3] | pest or weed control at 200 ppm [5] | inhibition of growth at 60 ppm [6]

C#Cc1cnc2ccc(OC(SC)C(=O)NC3(C(OC)OC)CCC3)cc2c1 (stereo not shown) [Example 153]
≥ 60%: pest or weed control at 200 ppm [1] | pest or weed control at 200 ppm [2] | pest or weed control at 200 ppm [3] | pest or weed control at 200 ppm [5] | inhibition of growth at 60 ppm [6] | inhibition of growth at 20 ppm [7]

C#Cc1cnc2ccc(OC(OC)C(=O)NC(C)(C#C)COC)cc2c1 (stereo not shown) [Example 155]
≥ 60%: pest or weed control at 200 ppm [3] | pest or weed control at 200 ppm [4] | pest or weed control at 200 ppm [5]

C#CCOCC(C)(COCC#C)NC(=O)C(Oc1ccc2ncc(C#C)cc2c1)SC (stereo not shown) [Example 165]
≥ 60%: pest or weed control at 200 ppm [1] | pest or weed control at 200 ppm [2] | pest or weed control at 200 ppm [3] | pest or weed control at 200 ppm [4] | pest or weed control at 200 ppm [5] | inhibition of growth at 60 ppm [6] | inhibition of growth at 20 ppm [7]

C#Cc1cnc2ccc(OC(SC)C(=O)NC(C)(C#C)CO)cc2c1 (stereo not shown) [Example 173]
≥ 60%: pest or weed control at 200 ppm [1] | pest or weed control at 200 ppm [2] | pest or weed control at 200 ppm [3] | pest or weed control at 200 ppm [5] | inhibition of growth at 20 ppm [7]

C#Cc1cnc2cc(F)c(OC(SC)C(=O)NC(C)(C)C#CCC)cc2c1 (stereo not shown) [Example 190]
≥ 60%: pest or weed control at 200 ppm [1] | pest or weed control at 200 ppm [2] | inhibition of growth at 60 ppm [8] | inhibition of growth at 20 ppm [7]

C#Cc1cnc2cc(F)c(OC(CC)C(=O)NC(C)(C)C=O)cc2c1 (stereo not shown) [Example 193]
≥ 60%: pest or weed control at 200 ppm [1] | pest or weed control at 200 ppm [2] | inhibition of growth at 60 ppm [8] | inhibition of growth at 20 ppm [7]

C#Cc1cnc2ccc(OC(SC)C(=O)NCCO)cc2c1 (stereo not shown) [Example 194]
≥ 60%: pest or weed control at 200 ppm [1] | pest or weed control at 200 ppm [2] | pest or weed control at 200 ppm [5] | inhibition of growth at 20 ppm [7]

C#Cc1cnc2c(F)c(F)c(OC(SC)C(=O)NC(C)(C)C#CCOC)cc2c1 (stereo not shown) [Example 215]
≥ 60%: pest or weed control at 200 ppm [1] | pest or weed control at 200 ppm [2] | pest or weed control at 200 ppm [3] | pest or weed control at 200 ppm [4] | inhibition of growth at 60 ppm [6] | inhibition of growth at 20 ppm [7]
